Experimental data reported in PubChem BioAssay (NCI).
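GI50: concentration for 50% inhibition of growth. At the TGI there is no net growth.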

Tests used:
Test in all cases: inhibition of tumour cell growth, NCI panel, 384-well format
[1] = system: KM12 colon
[2] = system: NCI-H23 lung
[3] = system: OVCAR-8 ovarian
[4] = system: T-47D breast
[5] = system: SF-268 CNS
[6] = system: CAKI-1 renal
[7] = system: NCI/ADR-RES ovarian
[8] = system: ACHN renal
[9] = system: HOP-92 NSCLC
[10] = system: SW-620 colon
[11] = system: HCT-116 colon
[12] = system: MCF7 breast
[13] = system: SK-MEL-28 melanoma
[14] = system: NCI-H226 lung
[15] = system: EKVX NSCLC
[16] = system: SK-OV-3 ovarian
[17] = system: A498 renal
[18] = system: NCI-H322M lung
[19] = system: MALME-3M melanoma
[20] = system: UO-31 renal
[21] = system: LOX IMVI melanoma
[22] = system: OVCAR-4 ovarian
[23] = system: SF-295 CNS
[24] = system: IGROV1 ovarian
[25] = system: UACC-62 melanoma
[26] = system: SNB-75 CNS
[27] = system: PC-3 prostate
[28] = system: U251 glioblastoma
[29] = system: TK-10 renal
[30] = system: A549 NSCLC
[31] = system: 786-0 renal
[32] = system: BT-549 breast
[33] = system: HCT-15 colon
[34] = system: SK-MEL-5 melanoma
[35] = system: HCC-2998 colon
[36] = system: SNB-19 CNS
[37] = system: SF-539 CNS
[38] = system: HOP-62 NSCLC
[39] = system: MDA-MB-231 breast
[40] = system: MDA-MB-435 melanoma
[41] = system: NCI-H460 NSCLC
[42] = system: UACC-257 melanoma
[43] = system: HT29 colon
[44] = system: OVCAR-5 ovarian
[45] = system: HS 578T breast
[46] = system: M14 melanoma
[47] = system: COLO 205 colon
[48] = system: OVCAR-3 ovarian
[49] = system: RXF 393 renal
[50] = system: CCRF-CEM leukemia
[51] = system: K-562 leukemia
[52] = system: NCI-H522 lung
[53] = system: SR leukemia
[54] = system: SN12C renal
[55] = system: MDA-MB-468 breast
[56] = system: DU-145 prostate

Structure (SMILES): CN1CC[C@H](N(C)C(=O)N2CC(c3cc(F)ccc3F)=C[C@@]2(CO)c2ccccc2)[C@H](F)C1
- TGI [1]: 10.9 µM
- TGI [2]: 0.0371 µM
- TGI [3]: 11.4 µM
- TGI [4]: 43.1 µM
- TGI [5]: 11.7 µM
- TGI [6]: > 100 µM
- TGI [7]: 0.0135 µM
- GI50 [8]: 9.3 µM
- TGI [8]: > 100 µM
- GI50 [9]: 0.198 µM
- TGI [9]: 32.6 µM
- TGI [10]: > 100 µM
- TGI [11]: 14.6 µM
- TGI [12]: 35.4 µM
- GI50 [13]: 0.646 µM
- TGI [13]: 19.5 µM
- TGI [14]: 8.16 µM
- TGI [15]: 28.2 µM
- TGI [16]: 26.8 µM
- TGI [17]: 13 µM
- TGI [18]: 55.6 µM
- TGI [19]: 14.5 µM
- GI50 [20]: 3.34 µM
- TGI [20]: 95.1 µM
- TGI [21]: 20 µM
- GI50 [22]: 21.6 µM
- TGI [22]: > 100 µM
- TGI [23]: 1.28 µM
- GI50 [24]: 6.07 µM
- TGI [24]: > 100 µM
- TGI [25]: 16.5 µM
- TGI [26]: 27.4 µM
- TGI [27]: 27.1 µM
- TGI [28]: 14.5 µM
- GI50 [29]: 4.89 µM
- TGI [29]: 35.3 µM
- TGI [30]: > 100 µM
- TGI [31]: 12.4 µM
- TGI [32]: 13.6 µM
- TGI [33]: 28 µM
- TGI [34]: 1.07 µM
- TGI [35]: 13.3 µM
- TGI [36]: 27.5 µM
- TGI [37]: 11.6 µM
- TGI [38]: 25.9 µM
- TGI [39]: > 100 µM

Structure (SMILES): N#CCC1CCN(c2nc(Nc3ccc(N4CCC(O)CC4)cc3)c3c(=O)[nH]ncc3n2)CC1
- GI50 [2]: 0.293 µM
- TGI [2]: > 100 µM
- GI50 [40]: 0.311 µM
- TGI [40]: > 100 µM
- GI50 [3]: 5.18 µM
- TGI [3]: > 100 µM
- GI50 [4]: 4.39 µM
- TGI [4]: > 100 µM
- GI50 [41]: 0.319 µM
- TGI [41]: > 100 µM
- GI50 [5]: 1.43 µM
- TGI [5]: 9.43 µM
- GI50 [6]: 0.349 µM
- TGI [6]: > 100 µM
- GI50 [42]: > 100 µM
- TGI [42]: > 100 µM
- GI50 [8]: 0.547 µM
- TGI [8]: > 100 µM
- GI50 [43]: 0.427 µM
- TGI [43]: > 100 µM
- GI50 [9]: 0.329 µM
- TGI [9]: > 100 µM
- GI50 [10]: 0.441 µM
- TGI [10]: 2.21 µM
- GI50 [44]: 0.602 µM
- TGI [44]: > 100 µM
- GI50 [11]: 0.336 µM
- TGI [11]: > 100 µM
- GI50 [12]: 0.254 µM
- TGI [12]: > 100 µM
- GI50 [13]: 0.81 µM
- TGI [13]: > 100 µM
- GI50 [14]: 0.281 µM
- TGI [14]: > 100 µM
- GI50 [45]: 0.673 µM
- TGI [45]: 3.54 µM
- GI50 [46]: 0.346 µM
- TGI [46]: > 100 µM
- GI50 [47]: 0.24 µM
- TGI [47]: 0.921 µM
- GI50 [15]: 0.277 µM
- TGI [15]: > 100 µM
- GI50 [48]: 1.13 µM
- TGI [48]: > 100 µM
- GI50 [16]: 0.235 µM
- TGI [16]: 4.81 µM
- GI50 [49]: 0.893 µM
- TGI [49]: 3.27 µM
- GI50 [17]: 0.804 µM
- TGI [17]: > 100 µM
- GI50 [19]: 0.472 µM
- TGI [19]: > 100 µM
- GI50 [21]: 0.49 µM
- TGI [21]: 2.6 µM
- GI50 [50]: 0.332 µM
- TGI [50]: > 100 µM
- GI50 [22]: > 100 µM
- TGI [22]: > 100 µM
- GI50 [24]: 0.239 µM
- TGI [24]: 3.48 µM
- GI50 [51]: 0.482 µM
- TGI [51]: > 100 µM
- GI50 [26]: 1.24 µM
- TGI [26]: 3.17 µM
- GI50 [27]: > 100 µM
- TGI [27]: > 100 µM
- GI50 [29]: 0.425 µM
- TGI [29]: 4.85 µM
- GI50 [30]: 0.365 µM
- TGI [30]: > 100 µM
- GI50 [52]: 0.196 µM
- TGI [52]: 0.929 µM
- GI50 [32]: 0.538 µM
- TGI [32]: 2.25 µM
- GI50 [33]: 0.453 µM
- TGI [33]: > 100 µM
- GI50 [34]: 0.338 µM
- TGI [34]: > 100 µM
- GI50 [53]: 0.18 µM
- TGI [53]: 0.327 µM
- GI50 [35]: 0.378 µM
- TGI [35]: 2.91 µM
- GI50 [54]: 0.243 µM
- TGI [54]: > 100 µM
- GI50 [36]: 2.75 µM
- TGI [36]: > 100 µM
- GI50 [55]: 1.01 µM
- TGI [55]: 3.47 µM
- GI50 [37]: 0.793 µM
- TGI [37]: 2.39 µM
- GI50 [56]: 0.704 µM
- TGI [56]: > 100 µM
- GI50 [38]: 3.71 µM
- TGI [38]: > 100 µM
- GI50 [39]: 5.42 µM
- TGI [39]: > 100 µM
